Data as given in EP4635513A1, “NEAR-INFRARED PHOTOSENSITIZER THAT CAN BE ACTIVATED IN SLIGHTLY ACIDIC TUMOR ENVIRONMENT AND PREPARATION METHOD THEREFOR AND USE THEREOF” (Shenzhen University, priority 2024, dated 2025).

Key:
[1] = Singlet oxygen generation assay with DPBF as trapping agent; type: physicochemical; conditions: 808 nm laser irradiation, 0.2 W cm^-2; DMSO
Procedure: The photosensitizers LET-R (R = H, Cl, Br, I) prepared in the Embodiments 1-4 were assessed. 1,3-Diphenylisobenzofuran (DPBF) was selected as a singlet oxygen trapping agent to determine a singlet oxygen generation capability of each photosensitizer molecule.
A 1 mM DPBF stock solution was first prepared for use. An appropriate volume of freshly prepared DPBF solution was then added to DMSO to adjust the absorbance at 415 nm to approximately 1.0, followed by addition of photosensitizer solution at appropriate concentration. The ultraviolet-visible absorption spectra were measured after different irradiation times with a near-infrared laser. The singlet oxygen generation capability of each photosensitizer was evaluated by monitoring the absorbance changes of DPBF at 415 nm.

[2] = Singlet oxygen quantum yield with ICG as reference standard; type: physicochemical; conditions: DPBF in dichloromethane, near-infrared laser
Procedure: Using indocyanine green (ICG) as a reference standard, the singlet oxygen quantum yields of photosensitizers LET-R (R = H, Cl, Br, I) were determined. At first, an appropriate volume of freshly prepared DPBF solution was added to dichloromethane to adjust the absorbance at 415 nm to approximately 1.0, followed by addition of test solution (photosensitizer or ICG) at optimized concentration. Samples were then irradiated with a near-infrared laser, and time-dependent ultraviolet-visible spectral changes were recorded. The singlet oxygen quantum yield was calculated using Formula (1): ΦΔ = […] [formula]
ΦΔ represents the singlet oxygen quantum yield of test molecules, and ΦICG represents the singlet oxygen quantum yield of ICG. "ps" represents the photosensitizer under investigation, while k represents a slope of DPBF absorbance decay at 415 nm over time. And correction factor F is calculated using Formula (2): […] [formula]
In Formula (2), OD represents the absorbance of solutions at a laser wavelength.

[3] = pH-response fluorescence spectra; type: physicochemical; conditions: pH dependence; for fluorescence intensity in the visible light region: excitation 420 nm, PBS buffer with 1% DMSO; for fluorescence emission intensity in the near-infrared region: excitation 760 nm (LET-H, LET-I), 660 nm (LET-Hcy-N)
Procedure: The photosensitizers prepared in the Embodiments 1-8 were individually dissolved in dimethyl sulfoxide to prepare 10 mM photosensitizer stock solution, which were stored at 4 °C for subsequent use. All experiments were conducted in PBS buffer (1 ×) containing 1% DMSO. 2 µL of the photosensitizer stock solution was added to 2 mL of PBS buffer solutions at different pH values. Absorption spectra and fluorescence spectra of each photosensitizer under various pH conditions were recorded using ultraviolet-visible spectrophotometry and fluorescence spectrophotometry.

[4] = Singlet oxygen detection by ESR/EPR spectroscopy with TEMP as trapping agent; type: physicochemical; conditions: near-infrared irradiation
Procedure: Singlet oxygen generation and characterization were further analyzed by electron spin resonance (ESR) spectroscopy. Using photosensitizers LET-H' and LET-I' as examples, 2,2,6,6-tetramethyl-4-piperidone hydrochloride (TEMP) was employed as the singlet oxygen trapping agent. Two groups of photosensitizer stock solutions were prepared and diluted with TEMP added, one group remained untreated, while another was irradiated with the near-infrared laser, and a blank control group was also prepared for comparison.

[5] = system: murine mammary carcinoma cells (4T1 cell line); test: Photodynamic efficacy at cellular level, cell viability assay; type: cell-based; conditions: Mus musculus, light or radiation study, 4T1 cells, 6 hours incubation, 808 nm (0.2 W/cm^2) laser, 20 minutes irradiation
Procedure: The photodynamic therapeutic efficacy was evaluated using standardized […] assay protocols to assess the effects of photosensitizer molecules on viability of murine mammary carcinoma cells (4T1 cell line).
Cell culture was performed using Dulbecco's Modified Eagle Medium (DMEM) high glucose supplemented with 10% fetal bovine serum (FBS) and 1% antibiotic-antimycotic solution (penicillin-streptomycin mixture), and maintained in a humidified incubator at 37 °C with 5% CO2. Experimental procedures were initiated when cell density reached 80% confluency. Using photosensitizers LET-H and LET-I as examples, 4T1 cells were seeded in 96-well plates (100 µL, 5×10^3 cells/well) and cultured for 24 hours, then original medium was discarded and replaced with medium containing photosensitizer molecules at a concentration of 20 µM. After 6 hours of incubation, the medium in each well was replaced with fresh medium, and irradiated with an 808 nm (0.2 W/cm^2) laser for different times (0, 5, 10 and 20 min), and placed back in cell culture incubator for continued incubation. After irradiation, the plates were returned to the incubator for continued culture. After 12 hours of incubation, 10 µL of CCK-8 solution was added to each well, and the plates were incubated for one additional hour. Absorbance was subsequently measured at 450 nm using a microplate reader.

| fluorescence intensity in the visible light region [3] | Structure (SMILES) | singlet oxygen generation capability (DPBF degradation, absorbance at 415 nm) [1] | singlet oxygen quantum yield [2] | fluorescence emission intensity in the near-infrared region [3] | EPR spectrum, singlet oxygen production [4] | viability at 20 µM [5] |
| --- | --- | --- | --- | --- | --- | --- |
| decreased with increasing pH | CC1(C)C(=CC=C2CCCC(C=CC34OCCCN3c3ccc(I)cc3C4(C)C)=C2Cl)N(CCCO)c2ccc(I)cc21 (stereo not shown) [LET-I] | superior singlet oxygen generation efficiency | superior singlet oxygen generation capability | enhanced fluorescence emission intensity at higher pH values | three isointense paramagnetic resonance peaks (1:1:1) | < 30% |
| decreased with increasing pH | CC1(C)C(=CC=C2CCCC(C=CC34OCCCN3c3ccccc3C4(C)C)=C2Cl)N(CCCO)c2ccccc21 (stereo not shown) [LET-H] |  |  | enhanced fluorescence emission intensity at higher pH values | three isointense paramagnetic resonance peaks (1:1:1) |  |
|  | CCN(CC)c1ccc2c(c1)OC1=C(C=CC34OCCCN3c3ccccc3C4(C)C)CCCC1=C2 (stereo not shown) [LET-Hcy-N] |  |  | enhanced fluorescence emission intensity at higher pH values |  |  |
